Measurements taken from PMC3135787 (Antiviral research, 2011).
Like-named read-outs stand apart in the source and are kept apart here.

Assays:
[1] = target: L-alanine dehydrogenase (Ala-DH) (Bacillus subtilis, UniProt Q08352)
[2] = system: primary human hepatocytes; experiment: Metabolism of [3H]-PSI-353661 in primary human hepatocytes; assay type: in vitro ADME; details: for time to maximum intracellular concentration: continuous exposure to 5 μM [3H]-PSI-353661
[3] = target: S282T genotype 1b NS5B (Con1 strain) (Hepatitis C virus genotype 1b, UniProt Q9WMX2, S2701T); experiment: biochemical; design: species or system HCV
[4] = system: S282T genotype 1b NS5B (Con1 strain); experiment: biochemical; design: species or system HCV; details: genotype 1b RdRp, 5 μM NTPs
[5] = target: recombinant NS5B genotype 4a (Hepatitis C virus genotype 4a, UniProt O39929); experiment: NS5B polymerase assay, genotype 4a; assay type: biochemical, HCV
[6] = target: recombinant NS5B genotype 3a (Hepatitis C virus genotype 3a, UniProt Q81258); experiment: NS5B polymerase assay, genotype 3a; assay type: biochemical, HCV
[7] = target: recombinant HCV NS5B genotype 1b (Con1 strain), wild-type (Hepatitis C virus genotype 1b, UniProt Q9WMX2); experiment: NS5B polymerase assay, genotype 1b wild-type; assay type: biochemical
[8] = target: recombinant NS5B genotype 2a (JFH-1 strain) (Hepatitis C virus genotype 2a, UniProt Q99IB8); experiment: NS5B polymerase assay, genotype 2a; assay type: biochemical, HCV
[9] = system: primary human hepatocytes
rabbit muscle PK = rabbit muscle PK (Oryctolagus cuniculus, UniProt P11974); experiment: Phosphorylation by pyruvate kinase; assay type: biochemical; details: kinetic parameters unable to be determined (Km too high)
[10] = target: 3-phosphoglycerate kinase (3-PGK) (Saccharomyces cerevisiae, UniProt P00560); experiment: Phosphorylation by 3-phosphoglycerate kinase; assay type: biochemical, bakers yeast; details: kinetic parameters unable to be determined (Km too high)
[11] = system: Human nucleoside diphosphate kinase (NDPK); experiment: NDPK-mediated phosphorylation, coupled assay; assay type: biochemical
CEM cells = experiment: Lactic acid production, CEM; details: 7 days, normalised to rDNA
[12] = 8-day MTS cytotoxicity assay, HepG2; assay type: cell-based, human; details: human
[13] = 8-day MTS cytotoxicity assay, CEM; assay type: cell-based, human; details: human
[14] = 8-day MTS cytotoxicity assay, BxPC3; assay type: cell-based, human; details: human
ribosomal DNA (rDNA) [15] = experiment: Mitochondrial COXII DNA and ribosomal DNA by real time PCR, HepG2; assay type: cell-based, human; details: human
[16] = system: mitochondrial COXII DNA (mtDNA); experiment: as above; assay type: cell-based, human; details: human
[17] = 8-day MTS cytotoxicity assay, Huh7; assay type: cell-based, human; details: human
[18] = system: Clone A replicon with NS5B S282T; experiment: microbe, parasite or virus in culture; assay type: cell-based, HCV
[19] = system: ET replicon with NS5B S96T/N142T; experiment: microbe, parasite or virus in culture; assay type: cell-based, HCV
[20] = system: Clone A wild type replicon; experiment: Cross resistance: Clone A wild type replicon, RT-PCR; assay type: cell-based, HCV; details: Hepatitis C virus, read-out: EC90 WT replicon
ribosomal DNA (rDNA) [21] = experiment: Mitochondrial COXII DNA and ribosomal DNA by real time PCR, CEM; assay type: cell-based, human; details: human
[22] = system: mitochondrial COXII DNA (mtDNA); experiment: as above; assay type: cell-based, human; details: human
HepG2 cells = experiment: Lactic acid production, HepG2; details: 7 days, normalised to rDNA
[23] = system: primary human hepatocytes; details: primary human hepatocytes from three donors
[24] = Hepatitis C virus, read-out: EC90 Mutant replicon

3-phosphoglycerate kinase (3-PGK), sequence (P00560 whole entry): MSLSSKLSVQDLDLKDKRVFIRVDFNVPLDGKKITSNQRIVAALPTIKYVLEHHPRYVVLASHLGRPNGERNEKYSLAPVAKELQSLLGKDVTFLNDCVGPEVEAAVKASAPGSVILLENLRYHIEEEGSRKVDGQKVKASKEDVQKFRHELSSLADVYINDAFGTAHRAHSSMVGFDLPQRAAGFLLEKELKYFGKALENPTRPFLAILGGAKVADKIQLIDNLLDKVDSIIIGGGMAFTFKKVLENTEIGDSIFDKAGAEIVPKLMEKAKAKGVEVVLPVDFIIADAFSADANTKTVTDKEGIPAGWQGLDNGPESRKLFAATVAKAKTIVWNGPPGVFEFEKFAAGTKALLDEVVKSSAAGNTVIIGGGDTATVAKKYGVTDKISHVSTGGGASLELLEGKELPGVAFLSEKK
L-alanine dehydrogenase (Ala-DH), sequence (Q08352 whole entry): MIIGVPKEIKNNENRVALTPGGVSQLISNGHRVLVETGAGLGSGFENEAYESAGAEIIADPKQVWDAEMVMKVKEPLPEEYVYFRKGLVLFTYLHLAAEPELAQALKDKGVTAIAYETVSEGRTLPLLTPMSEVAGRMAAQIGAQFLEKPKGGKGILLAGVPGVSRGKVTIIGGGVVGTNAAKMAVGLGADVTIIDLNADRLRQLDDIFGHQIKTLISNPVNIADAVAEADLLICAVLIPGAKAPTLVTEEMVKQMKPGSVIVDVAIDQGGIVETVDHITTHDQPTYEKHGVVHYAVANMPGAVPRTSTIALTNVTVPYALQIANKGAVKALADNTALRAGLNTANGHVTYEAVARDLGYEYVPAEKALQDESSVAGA
rabbit muscle PK, sequence (P11974 whole entry): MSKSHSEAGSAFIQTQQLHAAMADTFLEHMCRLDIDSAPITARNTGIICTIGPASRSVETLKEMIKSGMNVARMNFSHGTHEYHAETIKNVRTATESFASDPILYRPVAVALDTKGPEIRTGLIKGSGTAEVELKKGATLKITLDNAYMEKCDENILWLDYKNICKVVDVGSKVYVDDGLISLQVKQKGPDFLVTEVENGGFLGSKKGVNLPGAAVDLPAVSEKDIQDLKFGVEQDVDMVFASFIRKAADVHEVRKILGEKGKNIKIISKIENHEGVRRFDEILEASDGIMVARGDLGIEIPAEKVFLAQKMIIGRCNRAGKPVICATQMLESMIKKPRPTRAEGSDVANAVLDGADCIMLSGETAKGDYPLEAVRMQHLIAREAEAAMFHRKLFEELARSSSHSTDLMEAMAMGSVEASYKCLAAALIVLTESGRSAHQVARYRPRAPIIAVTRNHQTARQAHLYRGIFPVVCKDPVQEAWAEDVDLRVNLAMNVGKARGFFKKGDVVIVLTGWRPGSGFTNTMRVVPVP

Compound: C[C@H](N)C(=O)O [alanine, L-alanine]
- Vmax [1]: 0.0206 ± 0.0005 ΔA340/min

Compound: C[C@@]1(F)[C@H](O)[C@@H](COP(=O)(O)OP(=O)(O)OP(=O)(O)O)O[C@H]1n1cnc2c(=O)[nH]c(N)nc21 [PSI-352666, 2′-deoxy-2′-α-fluoro-2′-β-C-methylguanosine-5′-triphosphate]
- intracellular concentration ([2]; after 4 hours of exposure to PSI-353661): > 50 µM
- time to maximum intracellular concentration [2]: about 4 hours
- IC50 [3]: 9.2 ± 1.4 µM
- fold difference in IC50, S282T mutant vs wild-type [4]: ~2 fold
- IC50 [5]: 4.2 ± 0.8 µM
- IC50 [6]: 1300 ± 500 nM
- IC50 ([7]; IC50, genotype 1b NS5B, 1 μM NTPs): 1000 ± 200 nM
- IC50 ([7]; IC50, wild-type genotype 1b RdRp, 5 μM NTPs): 4000 ± 1100 nM
- IC50 [8]: 4.7 ± 0.6 µM

Compound: CCC[C@H](NC(=O)[C@@H]1[C@H]2CCC[C@H]2CN1C(=O)[C@@H](NC(=O)[C@@H](NC(=O)c1cnccn1)C1CCCCC1)C(C)(C)C)C(=O)C(=O)NC1CC1 [telaprevir]
- effect on formation of the triphosphate PSI-352666 from PSI-353661 [9]: not inhibited by telaprevir in hepatocytes from two of the three donors

Compound: C[C@@]1(F)[C@H](O)[C@@H](COP(=O)(O)OP(=O)(O)O)O[C@H]1n1cnc2c(=O)[nH]c(N)nc21 [PSI-353579, 2′-deoxy-2′-α-fluoro-2′-β-C –methylguanosine-5′-diphosphate]
- phosphorylation by PK (rabbit muscle PK): Phosphorylation of PSI-353579 was also observed
- time to maximum intracellular concentration [2]: 1 to 2 h
- phosphorylation by 3-PGK [10]: Phosphorylation of PSI-353579 was also observed
- kcat (apparent) ([11]; 25 °C, PK contributed in the phosphorylation): 44.6 ± 4.9 s⁻¹
- Km ([11]; read-out: Km (apparent), 25 °C, PK contributed in the phosphorylation): 66.3 ± 2.2 µM

Compound: COc1nc(N)nc2c1ncn2[C@@H]1O[C@H](COP(=O)(N[C@@H](C)C(=O)OCC(C)(C)C)Oc2cccc3ccccc23)[C@@H](O)[C@@]1(C)O (some centres unmarked) [INX-08189]
- Lactic acid (Fold change from untreated cells) (CEM cells; 0.1 μM): 1.4 ± 0.35
- Lactic acid (Fold change from untreated cells) (CEM cells; 1.0 μM): 1.4 ± 0.69
- Lactic acid (Fold change from untreated cells) (CEM cells; 10 μM): 1.5 ± 0.50
- Lactic acid (Fold change from untreated cells) (CEM cells; 50 μM): Toxic.
- CC50 at 8 days [12]: 2230 ± 100 nM
- CC50 at 8 days [13]: 15 ± 2 µM
- CC50 at 8 days [14]: 2810 ± 1520 nM
- CC90 at 14 days (ribosomal DNA (rDNA) [15]): 750 ± 270 nM
- CC90 at 14 days [16]: 970 ± 620 nM
- CC50 at 8 days [17]: 320 ± 30 nM
- EC90 [18, 24]: 110 ± 4 nM
- EC90 fold change ([18]; S282T mutant EC90 normalised to wild-type): 6.1
- EC90 [19, 24]: 5.9 ± 2.7 nM
- EC90 fold change ([19]; S96T/N142T mutant EC90 normalised to wild-type): 1.1
- EC90 [20]: 18 ± 1 nM
- CC90 at 14 days (ribosomal DNA (rDNA) [21]): 16.3 ± 4.1 µM
- CC90 at 14 days [22]: 16.9 ± 1.7 µM
- Lactic acid (Fold change from untreated cells) (HepG2 cells; 0.1 μM): 1.1 ± 0.21
- Lactic acid (Fold change from untreated cells) (HepG2 cells; 1.0 μM): 3.1 ± 0.61
- Lactic acid (Fold change from untreated cells) (HepG2 cells; 10 μM): Toxic
- Lactic acid (Fold change from untreated cells) (HepG2 cells; 50 μM): Toxic.

Compound: O=[N+]([O-])c1ccc(OP(=O)(O)Oc2ccc([N+](=O)[O-])cc2)cc1 [BNPP, bis(4-nitrophenyl)phosphate]
- effect on formation of the triphosphate PSI-352666 from PSI-353661 [23]: inhibited the formation of PSI-352666 in hepatocytes from three different donors in a dose-dependent manner
